Earlier results in patent US20030215513A1, “Method for releasing nanosized particles of an active substance from a diffusion-controlled pharmaceutical composition for oral use” (priority 2002, published 2003).
Like-named read-outs stand apart in the source and are kept apart here.

| saturated concentration (at 37° C.) | saturated concentration (at 25° C.) | SMILES |
| --- | --- | --- |
| about 17% |  | OC[C@@H](O)[C@@H](O)[C@H](O)[C@H](O)CO [mannitol] |
|  | about 66% | OC[C@@H](O)[C@@H](O)[C@H](O)[C@@H](O)CO [sorbitol] |
